Test [1] addresses T1, Atrial natriuretic peptide receptor 2 (Homo sapiens) (UniProt P20594).
T1 sequence (whole entry): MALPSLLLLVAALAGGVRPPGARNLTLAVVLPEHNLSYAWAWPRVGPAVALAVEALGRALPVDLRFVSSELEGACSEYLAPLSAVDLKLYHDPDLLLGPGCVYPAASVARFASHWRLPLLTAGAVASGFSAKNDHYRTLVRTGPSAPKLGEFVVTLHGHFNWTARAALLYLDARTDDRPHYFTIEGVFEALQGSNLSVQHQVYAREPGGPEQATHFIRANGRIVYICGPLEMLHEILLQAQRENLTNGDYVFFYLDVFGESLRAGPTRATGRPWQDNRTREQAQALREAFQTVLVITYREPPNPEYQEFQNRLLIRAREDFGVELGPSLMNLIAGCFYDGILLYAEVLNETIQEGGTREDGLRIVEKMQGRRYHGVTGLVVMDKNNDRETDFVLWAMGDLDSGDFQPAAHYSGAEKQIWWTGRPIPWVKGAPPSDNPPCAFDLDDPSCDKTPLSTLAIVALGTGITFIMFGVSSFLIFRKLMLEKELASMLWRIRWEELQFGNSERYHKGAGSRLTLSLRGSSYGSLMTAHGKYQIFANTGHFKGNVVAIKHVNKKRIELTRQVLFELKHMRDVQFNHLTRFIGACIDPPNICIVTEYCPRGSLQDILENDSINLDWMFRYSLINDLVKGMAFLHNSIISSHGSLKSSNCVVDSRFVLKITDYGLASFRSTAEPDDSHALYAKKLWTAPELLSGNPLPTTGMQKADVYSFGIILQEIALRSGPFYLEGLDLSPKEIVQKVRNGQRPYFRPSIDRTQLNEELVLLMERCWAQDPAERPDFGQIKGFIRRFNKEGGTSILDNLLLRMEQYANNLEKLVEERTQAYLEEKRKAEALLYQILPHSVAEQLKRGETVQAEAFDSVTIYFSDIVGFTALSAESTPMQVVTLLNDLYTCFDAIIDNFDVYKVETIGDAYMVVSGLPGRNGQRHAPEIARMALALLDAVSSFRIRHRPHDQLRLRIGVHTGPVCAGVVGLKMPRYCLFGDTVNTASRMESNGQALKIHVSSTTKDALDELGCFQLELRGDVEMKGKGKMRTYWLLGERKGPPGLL
Kind of test: Inhibition of ANPb Lys2 labeling site in human A-375 cells at 5 uM by KiNativ Profiling analysis relative to control. The test is classed as cell-based.

Test [2] addresses T2, Mitogen-activated protein kinase kinase kinase 2 (Homo sapiens) (UniProt Q9Y2U5).
T2 sequence (whole entry): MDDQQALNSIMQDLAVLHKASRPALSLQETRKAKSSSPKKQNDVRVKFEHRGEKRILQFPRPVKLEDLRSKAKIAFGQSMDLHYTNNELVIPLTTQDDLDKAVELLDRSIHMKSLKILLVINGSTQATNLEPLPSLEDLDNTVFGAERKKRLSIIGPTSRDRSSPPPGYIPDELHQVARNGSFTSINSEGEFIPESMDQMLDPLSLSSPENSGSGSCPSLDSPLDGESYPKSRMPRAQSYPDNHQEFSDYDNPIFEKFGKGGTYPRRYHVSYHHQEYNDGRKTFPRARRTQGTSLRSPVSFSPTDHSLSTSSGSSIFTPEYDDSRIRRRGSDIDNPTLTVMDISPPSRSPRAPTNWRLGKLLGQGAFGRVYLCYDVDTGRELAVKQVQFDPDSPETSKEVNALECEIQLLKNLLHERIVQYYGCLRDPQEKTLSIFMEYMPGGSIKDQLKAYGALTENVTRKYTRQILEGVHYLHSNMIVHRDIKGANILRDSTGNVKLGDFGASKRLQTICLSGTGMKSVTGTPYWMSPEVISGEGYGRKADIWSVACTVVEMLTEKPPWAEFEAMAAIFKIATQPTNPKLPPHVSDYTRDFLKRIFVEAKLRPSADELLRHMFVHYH
Put plainly: Inhibition of MAP3K2 (unknown origin) at 1 uM by Ambit Kinomescan binding assay relative to control; values are per cent of control.

The subject of test [3] is Receptor-type tyrosine-protein kinase FLT3 (Homo sapiens), P36888 [UNDEFINED MUTATION]. Put plainly: Inhibition of FLT3 ITD mutant (unknown origin) at 1 uM by Ambit Kinomescan binding assay relative to control; values are per cent of control.
The target in test [4] is Macrophage colony-stimulating factor 1 receptor (Homo sapiens) (UniProt P07333). Put plainly: Inhibition of CSF1R (unknown origin) at 1 uM by Ambit Kinomescan binding assay relative to control; values are per cent of control.
In test [5] the target is TGF-beta receptor type-1 (Homo sapiens) (UniProt P36897). Put plainly: Inhibition of TGFBR1 (unknown origin) at 1 uM by Ambit Kinomescan binding assay relative to control.
In test [6] the target is Epidermal growth factor receptor (Homo sapiens) (UniProt P00533). Kind of test: Inhibition of EGFR (unknown origin) at 1 uM by Ambit Kinomescan binding assay relative to control.
The target of test [7] is Serine/threonine-protein kinase tousled-like 2 (Homo sapiens) (UniProt Q86UE8). Kind of test: Inhibition of TLK2 (unknown origin) at 1 uM by Ambit Kinomescan binding assay relative to control.
The target of test [8] is Tyrosine-protein kinase Fes/Fps (Homo sapiens, UniProt P07332). Put plainly: Inhibition of FES K1 labeling site in human Huh-7 cells at 10 uM by KiNativ Profiling analysis relative to control. The test is classed as cell-based.
The target in test [9] is Mitogen-activated protein kinase 14 (Homo sapiens, UniProt Q16539). Put plainly: Inhibition of p38alpha K2 labeling site in human Huh-7 cells at 10 uM by KiNativ Profiling analysis relative to control. The test is classed as cell-based.
For test [10], the target named is Cyclin-dependent kinase 8/19 (Homo sapiens) (UniProt P49336+Q9BWU1). Kind of test: Inhibition of CDK8/11 K2 labeling site in human Huh-7 cells at 10 uM by KiNativ Profiling analysis relative to control. The test is classed as cell-based.
The target of test [11] is 5'-AMP-activated protein kinase catalytic subunit alpha-2 (Homo sapiens) (UniProt P54646). Put plainly: Inhibition of AMPKa2 Lys2 labeling site in human Huh-7 cell lysate at 1 uM by KiNativ Profiling analysis relative to control. It is filed as subcellular.
Test [12] deals with Cyclin-dependent kinase 1 (Homo sapiens) (UniProt P06493). Kind of test: Inhibition of CDC2 Lys2 labeling site in human Huh-7 cell lysate at 1 uM by KiNativ Profiling analysis relative to control. It is filed as subcellular.

The structures appear in SMILES notation.

Chain of Tyrosine-protein kinase Fes/Fps (P07332 whole entry): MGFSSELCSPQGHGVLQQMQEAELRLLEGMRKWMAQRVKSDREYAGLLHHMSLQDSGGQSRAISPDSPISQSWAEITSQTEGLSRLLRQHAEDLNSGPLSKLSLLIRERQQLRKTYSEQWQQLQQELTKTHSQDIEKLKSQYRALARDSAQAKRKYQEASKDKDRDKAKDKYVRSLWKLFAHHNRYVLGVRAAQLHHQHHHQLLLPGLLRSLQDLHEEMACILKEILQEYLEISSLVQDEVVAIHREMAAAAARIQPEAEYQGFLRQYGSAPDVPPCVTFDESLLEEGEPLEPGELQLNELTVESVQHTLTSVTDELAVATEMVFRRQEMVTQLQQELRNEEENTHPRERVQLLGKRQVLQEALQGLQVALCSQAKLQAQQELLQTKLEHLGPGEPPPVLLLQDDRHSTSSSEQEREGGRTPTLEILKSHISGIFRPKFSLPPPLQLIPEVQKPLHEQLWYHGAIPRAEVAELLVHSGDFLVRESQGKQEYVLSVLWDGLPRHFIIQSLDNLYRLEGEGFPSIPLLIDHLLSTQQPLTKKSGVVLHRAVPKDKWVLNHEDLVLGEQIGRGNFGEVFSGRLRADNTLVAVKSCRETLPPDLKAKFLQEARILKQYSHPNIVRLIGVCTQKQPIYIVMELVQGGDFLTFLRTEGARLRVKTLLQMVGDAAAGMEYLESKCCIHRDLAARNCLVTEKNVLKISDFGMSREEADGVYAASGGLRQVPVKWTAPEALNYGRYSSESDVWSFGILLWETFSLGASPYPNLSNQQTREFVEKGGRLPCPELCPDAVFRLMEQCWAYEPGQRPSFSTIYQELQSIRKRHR
Chain of TGF-beta receptor type-1 (Homo sapiens) (P36897 whole entry): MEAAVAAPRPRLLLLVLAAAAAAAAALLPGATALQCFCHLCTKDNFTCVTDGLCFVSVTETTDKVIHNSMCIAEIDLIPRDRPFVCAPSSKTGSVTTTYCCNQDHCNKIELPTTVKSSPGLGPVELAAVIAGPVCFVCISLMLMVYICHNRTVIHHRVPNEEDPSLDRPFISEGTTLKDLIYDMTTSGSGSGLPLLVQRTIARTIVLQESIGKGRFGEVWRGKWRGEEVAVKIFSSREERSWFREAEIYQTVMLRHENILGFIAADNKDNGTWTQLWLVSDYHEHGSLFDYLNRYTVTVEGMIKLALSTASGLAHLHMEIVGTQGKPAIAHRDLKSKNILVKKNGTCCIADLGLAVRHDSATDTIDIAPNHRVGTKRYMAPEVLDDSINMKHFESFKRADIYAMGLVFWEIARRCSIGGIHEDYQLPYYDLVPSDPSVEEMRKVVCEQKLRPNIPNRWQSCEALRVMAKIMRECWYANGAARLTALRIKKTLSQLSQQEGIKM
Chain of Serine/threonine-protein kinase tousled-like 2 (Homo sapiens) (Q86UE8 whole entry, looked up): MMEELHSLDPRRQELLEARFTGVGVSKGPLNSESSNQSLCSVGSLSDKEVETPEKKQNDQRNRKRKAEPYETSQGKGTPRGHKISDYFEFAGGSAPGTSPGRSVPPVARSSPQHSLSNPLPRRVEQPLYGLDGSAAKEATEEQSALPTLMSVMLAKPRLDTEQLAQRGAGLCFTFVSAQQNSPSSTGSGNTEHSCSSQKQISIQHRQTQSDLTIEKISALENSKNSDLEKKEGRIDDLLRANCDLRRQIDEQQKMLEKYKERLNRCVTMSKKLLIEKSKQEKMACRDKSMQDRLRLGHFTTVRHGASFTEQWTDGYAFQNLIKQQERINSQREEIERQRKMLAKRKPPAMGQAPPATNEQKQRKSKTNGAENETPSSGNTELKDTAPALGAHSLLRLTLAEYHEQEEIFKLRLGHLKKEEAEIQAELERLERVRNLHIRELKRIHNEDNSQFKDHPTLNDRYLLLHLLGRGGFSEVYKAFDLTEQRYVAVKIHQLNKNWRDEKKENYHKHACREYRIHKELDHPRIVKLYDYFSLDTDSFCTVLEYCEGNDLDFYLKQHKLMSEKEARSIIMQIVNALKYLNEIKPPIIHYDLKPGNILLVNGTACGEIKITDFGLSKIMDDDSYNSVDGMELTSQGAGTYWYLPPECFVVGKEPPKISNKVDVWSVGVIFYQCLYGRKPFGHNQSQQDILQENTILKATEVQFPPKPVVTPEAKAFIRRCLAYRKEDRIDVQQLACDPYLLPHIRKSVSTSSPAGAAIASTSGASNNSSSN
Chain of Cyclin-dependent kinase 1 (Homo sapiens) (P06493 whole entry, looked up): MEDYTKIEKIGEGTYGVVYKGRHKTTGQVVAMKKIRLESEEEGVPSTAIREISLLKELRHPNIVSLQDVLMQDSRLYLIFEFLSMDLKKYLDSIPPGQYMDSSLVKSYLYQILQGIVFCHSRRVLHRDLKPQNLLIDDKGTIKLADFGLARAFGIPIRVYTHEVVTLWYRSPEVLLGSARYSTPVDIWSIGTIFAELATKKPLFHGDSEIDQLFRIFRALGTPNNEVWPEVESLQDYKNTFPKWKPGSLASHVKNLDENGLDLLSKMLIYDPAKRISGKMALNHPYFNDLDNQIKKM
Chain of Cyclin-dependent kinase 8/19 (Homo sapiens) (P49336 whole entry, looked up): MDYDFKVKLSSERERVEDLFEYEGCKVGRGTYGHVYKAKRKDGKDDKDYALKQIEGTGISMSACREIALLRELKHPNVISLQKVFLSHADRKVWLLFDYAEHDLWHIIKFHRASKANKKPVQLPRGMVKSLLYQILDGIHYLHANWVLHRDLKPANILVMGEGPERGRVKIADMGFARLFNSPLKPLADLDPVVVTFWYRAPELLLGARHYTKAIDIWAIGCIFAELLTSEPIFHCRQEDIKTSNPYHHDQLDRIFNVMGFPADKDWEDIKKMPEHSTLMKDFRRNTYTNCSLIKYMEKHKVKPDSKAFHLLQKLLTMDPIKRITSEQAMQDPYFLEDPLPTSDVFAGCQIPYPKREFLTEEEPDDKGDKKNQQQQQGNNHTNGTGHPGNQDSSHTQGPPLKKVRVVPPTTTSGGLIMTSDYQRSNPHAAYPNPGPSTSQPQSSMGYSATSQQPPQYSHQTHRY
Chain of Cyclin-dependent kinase 8/19 (Homo sapiens) (Q9BWU1 whole entry, looked up): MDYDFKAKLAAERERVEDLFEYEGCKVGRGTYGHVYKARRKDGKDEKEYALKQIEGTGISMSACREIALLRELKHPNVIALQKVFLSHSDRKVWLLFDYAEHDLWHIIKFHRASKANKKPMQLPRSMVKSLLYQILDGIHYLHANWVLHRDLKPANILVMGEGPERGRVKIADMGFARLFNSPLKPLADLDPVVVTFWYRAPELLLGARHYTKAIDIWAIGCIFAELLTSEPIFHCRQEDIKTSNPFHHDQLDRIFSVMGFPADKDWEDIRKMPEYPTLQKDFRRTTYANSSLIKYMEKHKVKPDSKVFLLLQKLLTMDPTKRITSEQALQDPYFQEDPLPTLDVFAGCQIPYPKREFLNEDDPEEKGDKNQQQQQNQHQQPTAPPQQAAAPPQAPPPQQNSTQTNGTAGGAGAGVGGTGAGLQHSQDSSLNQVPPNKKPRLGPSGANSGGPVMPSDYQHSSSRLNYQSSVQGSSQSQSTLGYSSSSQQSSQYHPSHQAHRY
Chain of 5'-AMP-activated protein kinase catalytic subunit alpha-2 (Homo sapiens) (P54646 whole entry, looked up): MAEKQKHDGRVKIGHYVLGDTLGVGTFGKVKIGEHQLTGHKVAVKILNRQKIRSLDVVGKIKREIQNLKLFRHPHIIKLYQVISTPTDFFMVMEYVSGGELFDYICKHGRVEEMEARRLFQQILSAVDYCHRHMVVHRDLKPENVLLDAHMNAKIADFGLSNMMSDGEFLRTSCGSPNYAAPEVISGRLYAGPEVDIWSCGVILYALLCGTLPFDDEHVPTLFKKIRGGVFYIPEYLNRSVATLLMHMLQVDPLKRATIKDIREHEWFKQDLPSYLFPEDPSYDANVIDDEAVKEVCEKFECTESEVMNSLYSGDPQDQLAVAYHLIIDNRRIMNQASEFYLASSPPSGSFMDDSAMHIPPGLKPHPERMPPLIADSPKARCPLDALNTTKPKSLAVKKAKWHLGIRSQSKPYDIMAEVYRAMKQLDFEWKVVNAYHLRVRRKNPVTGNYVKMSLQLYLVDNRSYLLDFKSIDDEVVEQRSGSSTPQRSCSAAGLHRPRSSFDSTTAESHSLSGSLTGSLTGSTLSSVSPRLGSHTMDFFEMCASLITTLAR
Chain of Mitogen-activated protein kinase 14 (Q16539 whole entry): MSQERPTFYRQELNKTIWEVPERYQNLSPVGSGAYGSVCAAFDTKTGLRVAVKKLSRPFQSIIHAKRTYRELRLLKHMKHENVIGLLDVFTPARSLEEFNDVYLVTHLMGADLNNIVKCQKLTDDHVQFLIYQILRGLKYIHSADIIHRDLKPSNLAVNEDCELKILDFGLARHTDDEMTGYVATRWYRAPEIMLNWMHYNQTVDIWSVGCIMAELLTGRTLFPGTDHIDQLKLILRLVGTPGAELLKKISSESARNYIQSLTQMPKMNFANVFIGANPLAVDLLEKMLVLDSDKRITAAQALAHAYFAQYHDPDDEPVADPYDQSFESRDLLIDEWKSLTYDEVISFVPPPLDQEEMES

Take `CCN1CCN(Cc2ccc(NC(=O)c3ccc(C)c(/C=C/c4cnc5[nH]ccc5c4OC)c3)cc2C(F)(F)F)CC1`: the inhibition in test [1] was -8.8%; in test [5], 100%; in test [6], 7.6%; in test [7], 100%. The residual activity in test [2] is 23%; in test [3], 1.4%; in [4] it was 0.75%.
As for `CCN1CCN(Cc2ccc(NC(=O)c3ccc(C)c(Oc4ccnc5[nH]ccc45)c3)cc2C(F)(F)F)CC1`, the inhibition in test [8] came to 72.6%; in [9], 6.8%; in [10], 18.3%.
In the case of `CNc1cc(Oc2cc(C(=O)Nc3cc(N4CCN(C)CC4)cc(C(F)(F)F)c3)ccc2C)ncn1`, the inhibition in test [11] was 0.5%; in test [12] it was 0.4%.

The inhibition is the drop in the measured response relative to a control, in per cent.

The values are drawn from ChEMBL document CHEMBL5696442, “Discovery of type II inhibitors of TGFβ-activated kinase 1 (TAK1) and mitogen-activated protein kinase kinase kinase kinase 2 (MAP4K2)” (J Med Chem, 2015).
